We go through 1 compound from patent US8642572B2, “Cytidine derivative-containing antitumor agent for continuous intravenous administration” (Taiho Pharmaceutical Co., Ltd., priority 2007, dated 2014).

The subject of data set [1] is cancer patients. To be noted: rapid intravenous injection, once every three weeks or once a week for three weeks and one week rest; cited from earlier work.
The test system of data set [2] is patients of solid cancers. The experiment in a line: Test in cancer patients, 4-hour continuous vs rapid intravenous administration, neurotoxicity occurrence and therapeutic effect. In kind it is in vivo, human. The protocol: (§1) The above test is equivalent to the phase I clinical trial, which is performed mainly for evaluating safety of the tested drug and determining the recommended dose (RD) of the drug, which ensures safety of the drug without adverse effects in the phase II clinical trial carried out with respect to the target cancer. The test is carried out for patients of solid cancers (e.g., gastrointestinal cancers, head and neck cancer, and breast cancer) which cannot be cured by a standard therapeutic method or to which no effective method is applicable. When the test is performed, if possible, the therapeutic effect on the target tumor is assessed. In the following examples, the therapeutic effect on the target tumor was assessed in accordance with the RECIST method (see Journal of the National Cancer Institute, 2000, Vol. 92, No. 3, p. 205 to 216). The effect of ECyd on shrinkage of the tumor was confirmed generally from a target lesion (a lesion having a size equal to or greater than the measurable size depending on the slice width obtained through CT or similar means) and the non-target lesions (all lesions other than the target lesion). […] PD (progressive disease) refers to a state in which the sum of the longer diameters of target lesions was increased by 20% or more as compared with the minimum sum of the longer diameters recorded after start of the test, or a state in which clear exacerbation in the non-target lesions or a new lesion was observed. SD (stable disease) refers to a state in which the degree of tumor shrinkage cannot be evaluated as PR and which cannot be evaluated as PD, and in which the tumor progress has stopped and no exacerbation was observed. MR (minor response) refers to a case in which a certain tumor shrinkage degree of about 15% was maintained (although it was less than 30%), or in which a therapeutic effect corresponding to PR is temporarily observed.
A course including a 4-hour continuous intravenous administration once every three weeks out of a continuous four-week period at a dose of 1.30 mg/m^2 as reduced to ECyd for each administration was repeatedly performed. Also, a course including a rapid intravenous administration once every three weeks out of a continuous four-week period at a dose of 1.32 mg/m^2 as reduced to ECyd was repeatedly performed. In both cases, the neurotoxicity occurrence and the therapeutic effect by ECyd were investigated. In Example 2, selection of the patients and the method and ratings of evaluation were the same as employed in Example 1.

The subject of data set [3] is human lung tumor cells (A549 strain). The data set is described as follows: Effect of ECyd contact schedule on growth inhibition of A549 cells (Crystal Violet staining, constant AUC). The format is cell-based. How it is done: The effects of the ECyd contact schedule on growth inhibition of human lung tumor cells (A549 strain) were investigated.
The experiment of Example 4 was performed at a constant AUC (product of contact time and ECyd concentration). Specifically, in each tested regimen, AUC was maintained at such a level that the ECyd concentration was adjusted to provide IC80 (0.08 μM) as a result of contact between ECyd and the A549 cells for 100 hours. In each tested regimen, A549 cells were seeded on a plate and treated with ECyd. Subsequently, the cell culture liquid was exchanged. The profile of cell growth thereafter was obtained through staining with Crystal Violet.

Data set [4] concerns patients of solid cancers. The experiment in a line: Phase I-equivalent test in cancer patients, once every three weeks: 24-hour continuous vs rapid intravenous administration, neurotoxicity occurrence and therapeutic effect (RECIST). In kind it is in vivo, human. How it is done: A group of cancer patients was repeatedly subjected to a course including a 24-hour continuous intravenous administration once every three weeks at a dose of 2.80 to 8.56 mg/m^2 as reduced to ECyd for each administration. Another group of cancer patients was repeatedly subjected to a course including a rapid intravenous administration once every three weeks at a dose of 2.81 to 9.46 mg/m^2 as reduced to ECyd. In both cases, the neurotoxicity occurrence and the therapeutic effect by ECyd were investigated.
as §1

Data set [5] deals with neural-crest-derived rat adrenal medulla chromaffin cells (PC12 strain). The data set is described as follows: Effect of ECyd contact schedule on growth inhibition of PC12 cells (Crystal Violet staining, constant AUC). The format is cell-based. To be noted: for growth of PC12 cells after ECyd contact: constant AUC. How it is done: The effects of the ECyd contact schedule on growth inhibition of neural-crest-derived rat adrenal medulla chromaffin cells (PC12 strain) were investigated.
The experiment of Example 3 was performed at a constant AUC (product of contact time and ECyd concentration). Specifically, in each tested regimen, AUC was maintained at such a level that the ECyd concentration was adjusted to provide IC80 (0.08 μM) as a result of contact between ECyd and the PC12 cells for 100 hours. In each tested regimen, PC12 cells were seeded on a plate and treated with ECyd. Subsequently, the cell culture liquid was exchanged. The profile of cell growth thereafter was obtained through staining with Crystal Violet.

The mark [6] stands for this setting: rapid intravenous administration once every three weeks, 6.31 mg/m^2.

Each structure is given as a SMILES string.

The IC80 is the concentration at which the effect reaches the 80% level. A low value points to an effect from little substance.

Consider `C#C[C@@]1(O)[C@@H](CO)O[C@@H](n2ccc(N)nc2=O)[C@@H]1O` [ECyd, 1-(3-C-Ethynyl-β-D-ribopentofuranosyl)cytosine], for which the dose-limiting toxicity entry in data set [1] is “peripheral neurotoxicity was observed as a dose-limiting toxicity”. The “therapeutic efficacy (SD or higher)” value is listed as 66% in data set [2] (4-hour continuous intravenous administration, 1.30 mg/m^2); “no therapeutic efficacy (SD or higher) was observed” in data set [2] (rapid intravenous administration, 1.32 mg/m^2); “two of the three cases” in data set [4] (setting [6]). Also, the “cases exhibiting peripheral neurotoxicity” value in data set [2] (4-hour continuous intravenous administration, 1.30 mg/m^2, one of the three cases) is reported as 33%; in data set [2] (rapid intravenous administration, 1.32 mg/m^2, one of the three cases) it was 33%; in data set [4] (rapid intravenous administration once every three weeks, 2.81 mg/m^2, two of the three cases), 66%; in data set [4] (setting [6]) it was “two of the three cases”. Also, the concentration for an effect of 80% (IC80) in data set [3] (Homo sapiens, A549 cells, contact for 100 hours) is 80 nM; in data set [5] (Rattus norvegicus, PC-12, PC12 cells, contact for 100 hours), 80 nM. In addition, the “growth of A549 cells after ECyd contact” value in data set [3] (contact times of 0.5 to 100 hours, constant AUC, day 6) is “virtually unrestored”. Also, the peripheral neurotoxicity result in data set [4] (24-hour continuous intravenous administration once every three weeks, 2.80 mg/m^2 to 5.48 mg/m^2) is “no peripheral neurotoxicity was observed”. Further, the therapeutic effect entry in data set [4] (rapid intravenous administration once every three weeks, 2.81 mg/m^2) was “no therapeutic effect was observed”. Besides, the “growth of PC12 cells after ECyd contact” value in data set [5] (contact time of 0.5 hours, day 6) is “virtually unrestored”; in data set [5] (contact times of 25 and 100 hours), “restored”.
